Experimental data taken from patent US9587005B2 (priority 2010, dated 2017).
Read-outs that look alike come from different tables or passages of the source. *1 amine or outer side, *2 acyl side, *3 side chain or, on linkers, in order; H or OH if unused. Where a SMILES comes first, the peptide text is derived from it. Bridges are numbered along the chain shown (N, C = ends). Where no end group is shown, it is not given here. Side-chain parts run from the residue outwards. [ ]: non-standard residue; d: D form. The star is where a group is joined. γGlu = O=C(O)[C@H](CCC(=O)[*:2])N[*:1]; Palmitoyl = CCCCCCCCCCCCCCCC(=O)*; Aib = CC(C)(N)C(=O)O

Experiments:
Type in all cases: cell-based
[1] = target: T1, glucagon receptor (Homo sapiens, UniProt P47871); experiment: cAMP induction, firefly luciferase reporter assay in HEK293 cells co-transfected with glucagon receptor; settings: Table 4, Example 9, composite of multiple different activity assays
T1 construct: expressed in transfected cells; host or cells: HEK293
Source text: (§1) This example describes an exemplary method of testing the biological activity of the peptides of the present disclosures, which method involves assaying cAMP synthesis.

[2] = target: T2, GLP-1 receptor (Homo sapiens, UniProt P43220); experiment: cAMP induction, firefly luciferase reporter assay in HEK293 cells co-transfected with GLP-1 receptor
T2 construct: expressed in transfected cells; host or cells: HEK293
Source text: as §1

[3] = target: T3, GIP receptor (Homo sapiens, UniProt P48546); experiment: cAMP induction, firefly luciferase reporter assay in HEK293 cells co-transfected with GIP receptor
T3 sequence (P48546 22-466): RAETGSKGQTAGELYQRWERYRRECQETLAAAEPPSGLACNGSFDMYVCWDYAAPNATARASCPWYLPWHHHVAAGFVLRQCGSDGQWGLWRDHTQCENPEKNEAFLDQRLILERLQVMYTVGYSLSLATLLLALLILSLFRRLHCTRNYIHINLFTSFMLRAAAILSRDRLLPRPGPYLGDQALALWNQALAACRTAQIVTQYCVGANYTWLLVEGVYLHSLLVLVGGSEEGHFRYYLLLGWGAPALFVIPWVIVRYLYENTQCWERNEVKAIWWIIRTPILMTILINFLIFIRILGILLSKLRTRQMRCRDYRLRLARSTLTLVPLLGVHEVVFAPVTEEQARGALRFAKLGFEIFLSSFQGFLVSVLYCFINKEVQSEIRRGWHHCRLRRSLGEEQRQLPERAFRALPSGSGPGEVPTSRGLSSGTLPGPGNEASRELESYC

[4] = EC50 (nM) at GLP-1 Receptor, Table 4, Example 9, composite of multiple different activity assays
[5] = EC50 (nM) at GIP Receptor, Table 6, Example 12
[6] = EC50 (nM) at GLP-1 Receptor, Table 6, Example 12

T1 sequence (P47871 26-477): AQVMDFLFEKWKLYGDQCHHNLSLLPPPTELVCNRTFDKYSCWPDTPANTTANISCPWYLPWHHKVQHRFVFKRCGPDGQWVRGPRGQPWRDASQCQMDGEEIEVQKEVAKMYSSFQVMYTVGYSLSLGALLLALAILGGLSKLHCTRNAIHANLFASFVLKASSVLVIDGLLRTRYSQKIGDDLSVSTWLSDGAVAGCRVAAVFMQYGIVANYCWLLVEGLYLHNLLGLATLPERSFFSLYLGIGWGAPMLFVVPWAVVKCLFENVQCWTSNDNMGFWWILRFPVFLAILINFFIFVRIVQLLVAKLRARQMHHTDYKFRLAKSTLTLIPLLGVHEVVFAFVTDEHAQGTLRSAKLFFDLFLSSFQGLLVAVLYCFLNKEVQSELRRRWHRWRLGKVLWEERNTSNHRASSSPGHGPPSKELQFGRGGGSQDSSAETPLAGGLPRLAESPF
T2 sequence (P43220 24-463): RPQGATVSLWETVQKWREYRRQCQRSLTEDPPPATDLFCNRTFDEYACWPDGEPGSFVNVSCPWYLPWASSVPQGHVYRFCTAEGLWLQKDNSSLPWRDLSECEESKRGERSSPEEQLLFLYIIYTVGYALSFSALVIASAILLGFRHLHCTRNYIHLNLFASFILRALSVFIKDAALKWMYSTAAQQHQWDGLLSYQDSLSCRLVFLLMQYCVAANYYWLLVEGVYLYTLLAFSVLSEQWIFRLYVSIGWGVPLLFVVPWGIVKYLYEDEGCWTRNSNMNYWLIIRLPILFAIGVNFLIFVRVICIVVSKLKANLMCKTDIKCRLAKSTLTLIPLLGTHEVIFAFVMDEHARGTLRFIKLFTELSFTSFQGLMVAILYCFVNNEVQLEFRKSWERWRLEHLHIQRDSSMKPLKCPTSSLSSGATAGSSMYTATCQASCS

CCCCCCCCCCCCCCCC(=O)N[C@@H](CCC(=O)NCCCC[C@H](NC(=O)[C@H](CC(=O)O)NC(=O)[C@H](CO)NC(=O)[C@@H](NC(=O)[C@H](Cc1ccccc1)NC(=O)[C@@H](NC(=O)CNC(=O)[C@H](CCC(N)=O)NC(=O)[C@@H](CO)NC(=O)[C@@H](N)Cc1c[nH]cn1)[C@@H](C)O)[C@@H](C)O)C(=O)N[C@@H](CO)C(=O)N[C@@H](CCCCN)C(=O)N[C@@H](Cc1ccc(O)cc1)C(=O)N[C@@H](CC(C)C)C(=O)N[C@@H](CC(=O)O)C(=O)N[C@@H](CCC(=O)O)C(=O)N[C@@H](CCCNC(=N)N)C(=O)N[C@@H](C)C(=O)N[C@@H](C)C(=O)N[C@@H](CCC(N)=O)C(=O)N[C@@H](CC(=O)O)C(=O)N[C@@H](Cc1ccccc1)C(=O)N[C@H](C(=O)N[C@@H](CCC(N)=O)C(=O)N[C@@H](Cc1c[nH]c2ccccc12)C(=O)N[C@@H](CC(C)C)C(=O)N[C@@H](CC(C)C)C(=O)N[C@@H](CC(=O)O)C(=O)NCC(=O)NCC(=O)N1CCC[C@H]1C(=O)N[C@@H](CO)C(=O)N[C@@H](CO)C(=O)NCC(=O)N[C@@H](C)C(=O)N1CCC[C@H]1C(=O)N1CCC[C@H]1C(=O)N1CCC[C@H]1C(=O)N[C@@H](CO)C(N)=O)C(C)C)C(=O)O [compound 27]
EC50 ([1]; EC50 (nM) at Glucagon Receptor): 0.003 nM
EC50 [2, 4]: 0.002 nM

CCCCCCCCCCCCCCCC(=O)N[C@@H](CCC(=O)NCCCC[C@H](NC(=O)[C@H](CC(=O)O)NC(=O)[C@H](CO)NC(=O)[C@@H](NC(=O)[C@H](Cc1ccccc1)NC(=O)[C@@H](NC(=O)CNC(=O)[C@H](CCC(N)=O)NC(=O)C(C)(C)NC(=O)[C@@H](N)Cc1cnc[nH]1)[C@@H](C)O)[C@@H](C)O)C(=O)N[C@@H](CO)C(=O)N[C@@H](CCCCN)C(=O)N[C@@H](Cc1ccc(O)cc1)C(=O)N[C@@H](CC(C)C)C(=O)N[C@@H](CC(=O)O)C(=O)N[C@@H](CCC(=O)O)C(=O)N[C@@H](CCCNC(=N)N)C(=O)N[C@@H](C)C(=O)N[C@@H](C)C(=O)N[C@@H](CCC(N)=O)C(=O)N[C@@H](CC(=O)O)C(=O)N[C@@H](Cc1ccccc1)C(=O)N[C@H](C(=O)N[C@@H](CCC(N)=O)C(=O)N[C@@H](Cc1c[nH]c2ccccc12)C(=O)N[C@@H](CC(C)C)C(=O)N[C@@H](CC(C)C)C(=O)N[C@@H](CC(=O)O)C(=O)NCC(=O)N[C@@H](CCCNC(=N)N)C(=O)NCC(N)=O)C(C)C)C(=O)O [compound 29]
EC50 ([1]; EC50 (nM) at Glucagon Receptor): 0.007 nM
EC50 [2, 4]: 0.003 nM

CCCCCCCCCCCCCCCC(=O)N[C@@H](CCC(=O)NCCCC[C@H](NC(=O)[C@H](CC(=O)O)NC(=O)[C@H](CO)NC(=O)[C@@H](NC(=O)[C@H](Cc1ccccc1)NC(=O)[C@@H](NC(=O)CNC(=O)[C@H](CCC(N)=O)NC(=O)[C@@H](CO)NC(=O)[C@@H](N)Cc1c[nH]cn1)[C@@H](C)O)[C@@H](C)O)C(=O)N[C@@H](CO)C(=O)N[C@@H](CCCCN)C(=O)N[C@@H](Cc1ccc(O)cc1)C(=O)N[C@@H](CC(C)C)C(=O)N[C@@H](CC(=O)O)C(=O)N[C@@H](CCC(=O)O)C(=O)N[C@@H](CCCNC(=N)N)C(=O)N[C@@H](CCCNC(=N)N)C(=O)N[C@@H](C)C(=O)NC(C)(C)C(=O)N[C@@H](CCC(=O)O)C(=O)N[C@@H](Cc1ccccc1)C(=O)N[C@H](C(=O)N[C@@H](CCC(N)=O)C(=O)N[C@@H](Cc1c[nH]c2ccccc12)C(=O)N[C@@H](CC(C)C)C(=O)N[C@@H](CC(C)C)C(=O)N[C@@H](CC(=O)O)C(=O)N[C@H](C(N)=O)[C@@H](C)O)C(C)C)C(=O)O [compound 30] (H-H[dS]QGTFTSDK([γGlu-Palmitoyl])SKYLDERRA[Aib]EFVQWLLDT-NH2; N-terminus assumed)
EC50 ([1]; EC50 (nM) at Glucagon Receptor): 0.008 nM
EC50 [2, 4]: 0.0031 nM

CCCCCCCCCCCCCCCC(=O)N[C@@H](CCC(=O)NCCCC[C@H](NC(=O)[C@H](CC(=O)O)NC(=O)[C@H](CO)NC(=O)[C@@H](NC(=O)[C@H](Cc1ccccc1)NC(=O)[C@@H](NC(=O)CNC(=O)[C@H](CCC(N)=O)NC(=O)[C@@H](CO)NC(=O)C(C)(C)c1c[nH]cn1)[C@@H](C)O)[C@@H](C)O)C(=O)N[C@@H](CO)C(=O)N[C@@H](CCCCN)C(=O)N[C@@H](Cc1ccc(O)cc1)C(=O)N[C@@H](CC(C)C)C(=O)N[C@@H](CC(=O)O)C(=O)N[C@@H](CCC(=O)O)C(=O)N[C@@H](CCCNC(=N)N)C(=O)N[C@@H](C)C(=O)N[C@@H](C)C(=O)N[C@@H](CCC(N)=O)C(=O)N[C@@H](CC(=O)O)C(=O)N[C@@H](Cc1ccccc1)C(=O)N[C@H](C(=O)N[C@@H](CCC(N)=O)C(=O)N[C@@H](Cc1c[nH]c2ccccc12)C(=O)N[C@@H](CC(C)C)C(=O)N[C@@H](CC(C)C)C(=O)N[C@@H](CC(=O)O)C(=O)N[C@H](C(N)=O)[C@@H](C)O)C(C)C)C(=O)O [compound 32]
EC50 [1]: 0.004 nM
EC50 [2]: 0.003 nM

CC[C@H](C)[C@H](NC(=O)[C@H](CO)NC(=O)[C@H](Cc1ccc(O)cc1)NC(=O)[C@H](CC(=O)O)NC(=O)[C@H](CO)NC(=O)[C@@H](NC(=O)[C@H](Cc1ccccc1)NC(=O)[C@@H](NC(=O)CNC(=O)[C@H](CCC(N)=O)NC(=O)C(C)(C)NC(=O)[C@@H](N)Cc1c[nH]cn1)[C@@H](C)O)[C@@H](C)O)C(=O)N[C@@H](Cc1ccc(O)cc1)C(=O)N[C@@H](CC(C)C)C(=O)N[C@@H](CC(=O)O)C(=O)N[C@@H](CCCCN)C(=O)N[C@@H](CCC(N)=O)C(=O)N[C@@H](C)C(=O)N[C@@H](C)C(=O)NC(C)(C)C(=O)N[C@@H](CCC(=O)O)C(=O)N[C@@H](Cc1ccccc1)C(=O)N[C@H](C(=O)N[C@@H](CC(N)=O)C(=O)N[C@@H](Cc1c[nH]c2ccccc12)C(=O)N[C@@H](CC(C)C)C(=O)N[C@@H](CC(C)C)C(=O)N[C@@H](C)C(=O)NCC(=O)NCC(=O)N1CCC[C@H]1C(=O)N[C@@H](CO)C(=O)N[C@@H](CO)C(=O)NCC(=O)N[C@@H](C)C(=O)N1CCC[C@H]1C(=O)N1CCC[C@H]1C(=O)N1CCC[C@H]1C(=O)N[C@@H](CO)C(=O)N[C@@H](CS)C(N)=O)C(C)C [compound 52] (H-H[Aib]QGTFTSDYSIYLDKQAA[Aib]EFVNWLLAGGPSSGAPPPSC-NH2)
EC50 [3, 5]: 0.006 nM
EC50 [2, 6]: 0.005 nM

CC[C@H](C)[C@H](NC(=O)[C@H](CO)NC(=O)[C@H](Cc1ccc(O)cc1)NC(=O)[C@H](CC(=O)O)NC(=O)[C@H](CO)NC(=O)[C@@H](NC(=O)[C@H](Cc1ccccc1)NC(=O)[C@@H](NC(=O)CNC(=O)[C@H](CCC(N)=O)NC(=O)C(C)(C)NC(=O)[C@@H](N)Cc1ccc(O)cc1)[C@@H](C)O)[C@@H](C)O)C(=O)N[C@@H](Cc1ccc(O)cc1)C(=O)N[C@@H](CC(C)C)C(=O)N[C@@H](CC(=O)O)C(=O)N[C@@H](CCCCN)C(=O)N[C@H]1CCC(=O)NCCCC[C@@H](C(=O)N[C@@H](Cc2ccccc2)C(=O)N[C@H](C(=O)N[C@@H](CC(N)=O)C(=O)N[C@@H](Cc2c[nH]c3ccccc23)C(=O)N[C@@H](CC(C)C)C(=O)N[C@@H](CC(C)C)C(=O)N[C@@H](C)C(=O)NCC(=O)NCC(=O)N2CCC[C@H]2C(=O)N[C@@H](CO)C(=O)N[C@@H](CO)C(=O)NCC(=O)N[C@@H](C)C(=O)N2CCC[C@H]2C(=O)N2CCC[C@H]2C(=O)N2CCC[C@H]2C(=O)N[C@@H](CO)C(=O)N[C@@H](CS)C(N)=O)C(C)C)NC(=O)C(C)(C)NC(=O)[C@H](C)NC(=O)[C@H](C)NC1=O [compound 58] (H-Y[Aib]QGTFTSDYSIYLDKEAA[Aib]KFVNWLLAGGPSSGAPPPSC-NH2; lactam 17-21)
EC50 [3, 5]: 0.005 nM
EC50 [2, 6]: 0.014 nM

CCCCCCCCCCCCCCCC(=O)N[C@@H](CCC(=O)N[C@@H](CCC(=O)NCCCC[C@H](NC(=O)[C@H](CC(=O)O)NC(=O)[C@H](CO)NC(=O)[C@@H](NC(=O)[C@H](Cc1ccccc1)NC(=O)[C@@H](NC(=O)CNC(=O)[C@H](CCC(N)=O)NC(=O)C(C)(C)NC(=O)[C@@H](N)Cc1ccc(O)cc1)[C@@H](C)O)[C@@H](C)O)C(=O)N[C@@H](CO)C(=O)N[C@H](C(=O)N[C@@H](Cc1ccc(O)cc1)C(=O)N[C@@H](CC(C)C)C(=O)N[C@@H](CC(=O)O)C(=O)N[C@@H](CCCCN)C(=O)N[C@@H](CCC(N)=O)C(=O)N[C@@H](C)C(=O)N[C@@H](C)C(=O)NC(C)(C)C(=O)N[C@@H](CCC(=O)O)C(=O)N[C@@H](Cc1ccccc1)C(=O)N[C@H](C(=O)N[C@@H](CC(N)=O)C(=O)N[C@@H](Cc1c[nH]c2ccccc12)C(=O)N[C@@H](CC(C)C)C(=O)N[C@@H](CC(C)C)C(=O)N[C@@H](CC(=O)O)C(=O)N[C@H](C(N)=O)[C@@H](C)O)C(C)C)[C@@H](C)CC)C(=O)O)C(=O)O [compound 92] (H-Y[Aib]QGTFTSDK([γGlu-γGlu-Palmitoyl])SIYLDKQAA[Aib]EFVNWLLDT-NH2; N-terminus assumed)
EC50 ([3]; EC50 (nM) at GIP Receptor, Table 7, Example 13): 0.021 nM
EC50 ([2]; EC50 (nM) at GLP-1 Receptor, Table 7, Example 13): 0.0031 nM

H[Aib]EGTFTSDYSKYLDERAAQDFVQWLLDGGPSSGAPPPSK([γGlu-γGlu-Palmitoyl])G-NH2 [SEQ ID NO: 171]
EC50 ([3]; EC50 (nM) at GIP receptor, Table 15, Example 23): 0.038 nM
EC50 ([2]; EC50 (nM) at GLP-1 receptor, Table 15, Example 23): 0.005 nM
